# Test results from paper PMC7866225, “Microwave-Assisted Synthesis of (Piperidin-1-yl)quinolin-3-yl)methylene)hydrazinecarbothioamides as Potent Inhibitors of Cholinesterases: A Biochemical and In Silico Approach” (Molecules, 2021).
# Columns and labels:
# [1] = target: Butyrylcholinesterase (BChE) (Equus caballus, UniProt P81908); assay: biochemical; settings: Ellman's method, triplicate; read-out: Butyrylcholinesterse (BChE) IC50 ± SEM
# Method: (§1) Modified Ellman’s method was adopted to investigate the inhibitory potential of newly synthesized compounds against cholinesterase enzymes. The assay protocol involved 96-well plates (100 μL per well). Each well contained 20 μL of assay buffer solution, 10 μL of test sample, and 10 μL of 0.5 U/mg of AChE (for AChE inhibition assay) or 10 μL of 3.4 U/mg of BChE (for BChE inhibition assay). This mixture was incubated at 25 °C for 10 min followed by the addition of substrate (10 μL). For AChE inhibition assay, acetylthiocholine iodide (ATCI, 1 mM) while for BChE assay, butyrylthiocholine chloride (BTCCl, 1 mM), was added. This mixture was incubated for 15 min at 37 °C. Ellman reagent (5,5′-dithio-bis(2-nitrobenzoic acid), DTNB, 3 mM) was added. […] Blank assay was also performed. All the analyses were performed in triplicate. IC50 values were also calculated for the synthesized compounds in GraphPad prism 5.0. using nonlinear regression method.
# [2] = target: Acetylcholinesterase (AChE) (Electrophorus electricus, UniProt O42275); assay: biochemical; settings: Ellman's method, triplicate; read-out: Acetylcholinesterase (AChE) IC50 ± SEM
# Chain of Acetylcholinesterase (AChE) (O42275 24-633): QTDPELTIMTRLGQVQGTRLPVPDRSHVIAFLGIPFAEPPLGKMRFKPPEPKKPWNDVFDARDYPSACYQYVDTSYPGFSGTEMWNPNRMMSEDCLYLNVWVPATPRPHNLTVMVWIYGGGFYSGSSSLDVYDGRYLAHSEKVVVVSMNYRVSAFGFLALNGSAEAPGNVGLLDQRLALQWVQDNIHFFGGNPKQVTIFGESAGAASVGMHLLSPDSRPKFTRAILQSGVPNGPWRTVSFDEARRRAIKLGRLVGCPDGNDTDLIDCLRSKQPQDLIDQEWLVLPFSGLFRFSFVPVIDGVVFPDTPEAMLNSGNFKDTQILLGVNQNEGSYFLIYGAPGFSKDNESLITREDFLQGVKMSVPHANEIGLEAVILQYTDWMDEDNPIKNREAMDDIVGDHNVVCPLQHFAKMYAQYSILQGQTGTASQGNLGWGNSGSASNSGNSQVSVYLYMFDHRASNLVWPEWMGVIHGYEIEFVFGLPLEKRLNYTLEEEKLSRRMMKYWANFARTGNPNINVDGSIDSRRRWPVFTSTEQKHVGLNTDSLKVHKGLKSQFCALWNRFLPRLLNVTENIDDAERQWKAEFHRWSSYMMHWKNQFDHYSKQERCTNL
# Method: as §1
# [3] = In vitro cytotoxicity, MTT assay; type: cell-based; settings: human, HepG2 cells, 24 h, control = 100, read-out: Cell Viability; for viability at 24 h, 50 μg/mL: HepG2, 50 μg/mL; for viability at 24 h, 100 μg/mL: HepG2, 100 μg/mL; for viability at 24 h, 200 μg/mL: HepG2, 200 μg/mL; for viability at 24 h, 500 μg/mL: HepG2, 500 μg/mL; for viability at 24 h, 1000 μg/mL: HepG2, 1000 μg/mL
# Method: (§2) HepG2 cell line was obtained from the cell culture laboratory established in The University of Lahore. These cell lines were preserved in cryo vials present in liquid nitrogen. Cryo vials were revived for further processing.
# (§3) The cryo vials obtained from liquid nitrogen cylinder were thawed. Then HepG2 cells were cultured in the culturing flask in which DMEM-HG along with 10% fetal bovine serum (FBS), supplemented with […] (Sigma) and 100 U/mL streptomycin (Sigma) were added. Cultures were maintained in a humidified incubator supplied with 5% CO2 at 37 °C. Experiments were performed in triplicates. When cultured HepG2 cells achieved 70–80% confluence their subculturing was conducted. For splitting, the cells attached to the walls of the culturing flask were washed with 1× phosphate buffer saline (PBS) and incubated with 0.05% trypsin-EDTA until cells detached from the surface of culturing flask. The detachment of the cells was confirmed by observing the flask under the inverted microscope. A few drops of FBS were added to the flask and mixed well by stirring. The mixture was centrifuged at 2000 rpm for 5 min. After centrifugation the supernatant was removed, and pellet was resuspended. HepG2 cells were cultured onto 96-well plates for measurement of cell viability. Treatment was given for both compounds at a concentration of 0–1000 µg/mL for 24 h.
# (§4) After 4 h formazan crystals were solubilized with 10% sodium dodecylsulphate (SDS) (Invitrogen Inc.) and absorbance was taken at 570 nm. Percentage viability was calculated according to the following formula:% Viable cells = ((abs sample − abs blank) / (abs control − abs blank)) × 100 (1) where abs stands for absorbance.
# HepG2 cells = assay: In vitro cytotoxicity, MTT assay; type: cell-based; settings: for Status: HepG2, MTT, 0–1000 µg/mL, 24 h
# Method: as §2, §3, §4
# Chain of Butyrylcholinesterase (BChE) (P81908 whole entry): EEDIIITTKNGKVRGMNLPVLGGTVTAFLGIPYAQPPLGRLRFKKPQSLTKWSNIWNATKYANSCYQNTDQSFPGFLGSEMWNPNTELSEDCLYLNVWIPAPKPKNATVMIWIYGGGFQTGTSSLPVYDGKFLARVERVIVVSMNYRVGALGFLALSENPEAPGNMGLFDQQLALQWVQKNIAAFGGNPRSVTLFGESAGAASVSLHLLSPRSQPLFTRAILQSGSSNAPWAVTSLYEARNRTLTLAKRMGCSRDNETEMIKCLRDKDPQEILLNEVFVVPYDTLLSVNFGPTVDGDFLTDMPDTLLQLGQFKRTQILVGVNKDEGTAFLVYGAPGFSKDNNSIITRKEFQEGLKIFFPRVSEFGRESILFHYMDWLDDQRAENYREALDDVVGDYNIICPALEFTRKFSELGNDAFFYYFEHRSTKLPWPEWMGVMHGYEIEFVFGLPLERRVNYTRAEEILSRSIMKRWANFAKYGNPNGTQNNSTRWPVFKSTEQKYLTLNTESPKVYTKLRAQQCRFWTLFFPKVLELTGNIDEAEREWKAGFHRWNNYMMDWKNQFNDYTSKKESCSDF
SMILES,IC50 [1],IC50 [2],"viability at 24 h, 50 μg/mL [3]","viability at 24 h, 100 μg/mL [3]","viability at 24 h, 200 μg/mL [3]","viability at 24 h, 500 μg/mL [3]","viability at 24 h, 1000 μg/mL [3]",Status (HepG2 cells),"IC50 (HepG2 cells; HepG2, standard drug)"
"Cc1ccc2nc(N3CCCCC3)c(C=NNC(N)=S)cc2c1 [Compound 5a, 2-((6-Methyl-2-(piperidin-1-yl)quinolin-3-yl)methylene)hydrazinecarbothioamide]",35.3 ± 0.01 µM,27.6 ± 0.08 µM,95.4%,88.9%,92.8%,95.8%,102%,Non-cytotoxic,
"Cc1ccc2nc(N3CCCCC3)c(C=NNC(=S)Nc3ccccc3)cc2c1 [Compound 5b, 2-((6-Methyl-2-(piperidin-1-yl)quinolin-3-yl)methylene)-N-phenylhydrazinecarbothioamide]",33.1 ± 0.09 µM,25.1 ± 0.25 µM,106%,107%,139%,169%,227%,Proliferative,
"Cc1ccc(NC(=S)NN=Cc2cc3cc(C)ccc3nc2N2CCCCC2)c(C)c1 [Compound 5c, N-(2,4-Dimethylphenyl)-2-((6-methyl-2-(piperidin-1-yl)quinolin-3-yl)methylene)hydrazine carbothioamide]",37.2 ± 0.83 µM,42.3 ± 0.99 µM,105%,109%,122%,188%,262%,Proliferative,
"Cc1ccc2nc(N3CCCCC3)c(C=NNC(=S)Nc3c(C)cccc3C)cc2c1 [Compound 5d, N-(2,6-Dimethylphenyl)-2-((6-methyl-2-(piperidin-1-yl)quinolin-3-yl)methylene)hydrazine carbothioamide]",29.8 ± 1.2 µM,25.9 ± 0.96 µM,105%,108%,110%,134%,131%,Proliferative,
"Cc1ccc2nc(N3CCCCC3)c(C=NNC(=S)Nc3ccccc3Cl)cc2c1 [Compound 5e, N-(2-Chlorophenyl)-2-((6-methyl-2-(piperidin-1-yl)quinolin-3-yl)methylene)hydrazine carbothioamide]",40.26 ± 0.17 µM,35.2 ± 0.54 µM,94.2%,97.2%,158%,196%,76.3%,Cytotoxic,
"Cc1ccc2nc(N3CCCCC3)c(C=NNC(=S)Nc3cccc(Cl)c3)cc2c1 [Compound 5f, N-(3-Chlorophenyl)-2-((6-methyl-2-(piperidin-1-yl)quinolin-3-yl)methylene)hydrazine carbothioamide]",24.6 ± 0.57 µM,23.9 ± 0.25 µM,84.8%,94.9%,93.9%,93.2%,56.9%,Cytotoxic,
"Cc1ccc2nc(N3CCCCC3)c(C=NNC(=S)Nc3ccc(Cl)cc3)cc2c1 [Compound 5g, N-(4-Chlorophenyl)-2-((6-methyl-2-(piperidin-1-yl)quinolin-3-yl)methylene)hydrazine carbothioamide]",23.1 ± 0.11 µM,19.85 ± 0.14 µM,84.3%,96.4%,94.1%,122%,135%,Proliferative,
"Cc1ccc2nc(N3CCCCC3)c(C=NNC(=S)Nc3ccccc3F)cc2c1 [Compound 5h, N-(2-Fluorophenyl)-2-((6-methyl-2-(piperidin-1-yl)quinolin-3-yl)methylene)hydrazine carbothioamide]",25.1 ± 0.99 µM,31.3 ± 0.37 µM,113%,121%,83.8%,151%,209%,Proliferative,
"Cc1ccc2nc(N3CCCCC3)c(C=NNC(=S)Nc3cccc(F)c3)cc2c1 [Compound 5i, N-(3-Fluorophenyl)-2-((6-methyl-2-(piperidin-1-yl)quinolin-3-yl)methylene)hydrazine carbothioamide]",36.23 ± 0.02 µM,24.1 ± 0.43 µM,118%,99.4%,97.2%,99.4%,149%,Proliferative,
"Cc1ccc2nc(N3CCCCC3)c(C=NNC(=S)Nc3ccc(F)cc3)cc2c1 [Compound 5j, N-(4-Fluorophenyl)-2-((6-methyl-2-(piperidin-1-yl)quinolin-3-yl)methylene)hydrazine carbothioamide]",42.4 ± 0.44 µM,28.2 ± 0.94 µM,93.4%,98.1%,107%,138%,166%,Proliferative,
"CCc1ccc(NC(=S)NN=Cc2cc3cc(C)ccc3nc2N2CCCCC2)cc1 [Compound 5k, N-(4-Ethylphenyl)-2-((6-methyl-2-(piperidin-1-yl)quinolin-3-yl)methylene)hydrazine carbothioamide]",32 ± 0.87 µM,30.6 ± 0.56 µM,111%,110%,99.6%,106%,132%,Proliferative,
"Cc1ccc2nc(N3CCCCC3)c(C=NNC(=S)NCc3ccccc3)cc2c1 [Compound 5l, N-Benzyl-2-((6-methyl-2-(piperidin-1-yl)quinolin-3-yl)methylene)hydrazinecarbothioamide]",45.02 ± 0.38 µM,35.1 ± 1.2 µM,101%,101%,107%,109%,133%,Proliferative,
"Cc1ccc2nc(N3CCCCC3)c(C=NNC(=S)NCCN3CCOCC3)cc2c1 [Compound 5m, 2-((6-Methyl-2-(piperidin-1-yl)quinolin-3-yl)methylene)-N-(2-morpholinoethyl)hydrazine carbothioamide]",59.35 ± 0.13 µM,62.3 ± 0.68 µM,94%,102%,109%,107%,115%,Non-cytotoxic,
"Cc1cccc2cc(C=NNC(N)=S)c(N3CCCCC3)nc12 [Compound 6a, 2-((8-Methyl-2-(piperidin-1-yl)quinolin-3-yl)methylene)hydrazinecarbothioamide]",60.02 ± 0.04 µM,36.25 ± 0.36 µM,82.5%,86.3%,80.6%,83.3%,77.9%,Cytotoxic,
"Cc1cccc2cc(C=NNC(=S)Nc3ccccc3)c(N3CCCCC3)nc12 [Compound 6b, 2-((8-Methyl-2-(piperidin-1-yl)quinolin-3-yl)methylene)-N-phenylhydrazinecarbothioamide]",28.8 ± 0.63 µM,25.9 ± 0.45 µM,89.9%,95.7%,92.8%,112%,69.2%,Cytotoxic,
"N.N.[Cl][Pt][Cl] [cisplatin, reference compound]",,,,,,,,,20 µg/mL
